Measurements: patent US20110195402A1, “SYSTEMS AND METHODS FOR DETECTING DRUG USE” (priority 2010, published 2011)
Several values for one entry are separate records, joined by “and”; a condition that tells them apart may be missing. Equal values may be shown once.

B1: Soybeans: primary soybean protease inhibitor, 20.7-22.3 kDa (protein, UniProt P01070 25-205, looked up)
Trypsin inhibitor A: DFVLDNEGNPLENGGTYYILSDITAFGGIRAAPTGNERCPLTVVQSRNELDKGIGTIISSPYRIRFIAEGHPLSLKFDSFAVIMLCVGIPTEWSVVEDLPEGPAVKIGENKDAMDGWFRLERVSDDEFNNYKLVFCPQQAEDDKCGDIGISIDHDDGTRRLVVSKNKPLVVQFQKLDKESL

How the values were obtained:
peroxidase = experiment: Peroxidase assay in saliva (Amplex Red); format: biochemical; conditions: test compound at 500 ppm, pooled or unpooled saliva, 30 minutes; FIGS. 26-29
Protocol: To determine the effect of various GRAS compounds as inhibitors of peroxidase activity, a standard assay using Amplex® Red (Life Technologies), which releases a fluorescent oxidation product.
The test compounds, such as GRAS materials or cocktails of same, were prepared at a concentration of 500 ppm in distilled water. For the assay, 50 μl samples of test compounds were mixed with 20-30 μl of saliva (either “pooled” or “unpooled”) prior to the addition of Amplex® Red. […] Reactions were allowed to run for 30 minutes during these assays.

lysozyme = target: T1, lysozyme (Homo sapiens, UniProt P61626); experiment: Lysozyme inhibition saliva screening (fluorescein-labeled Micrococcus lysodeikticus); format: biochemical; conditions: 100% saliva samples (data not shown)
T1 sequence (P61626 19-148): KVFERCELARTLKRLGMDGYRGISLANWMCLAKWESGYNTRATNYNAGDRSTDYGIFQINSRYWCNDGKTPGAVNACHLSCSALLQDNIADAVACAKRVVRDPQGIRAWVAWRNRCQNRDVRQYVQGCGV
From the text: Further details of these five compounds may also be seen in Table 5.

α-amylase = target: T2, α-amylase (Homo sapiens, UniProt P0DUB6); experiment: α-Amylase inhibition saliva screening (2-chloro-p-nitrophenol-maltotriose substrate, 405 nm); format: biochemical; conditions: for Ave (reading, absorbance at 405 nm) / reading (absorbance at 405 nm), single replicates: test compound prepared at 5,000 ppm, 37° C., control column '100% Saliva'; for inhibition of α-Amylase: 100% saliva samples, FIG. 11; for α-Amylase Inhibitor Activity: dilute (3.5%) saliva, FIG. 10
T2 sequence (P0DUB6 16-511): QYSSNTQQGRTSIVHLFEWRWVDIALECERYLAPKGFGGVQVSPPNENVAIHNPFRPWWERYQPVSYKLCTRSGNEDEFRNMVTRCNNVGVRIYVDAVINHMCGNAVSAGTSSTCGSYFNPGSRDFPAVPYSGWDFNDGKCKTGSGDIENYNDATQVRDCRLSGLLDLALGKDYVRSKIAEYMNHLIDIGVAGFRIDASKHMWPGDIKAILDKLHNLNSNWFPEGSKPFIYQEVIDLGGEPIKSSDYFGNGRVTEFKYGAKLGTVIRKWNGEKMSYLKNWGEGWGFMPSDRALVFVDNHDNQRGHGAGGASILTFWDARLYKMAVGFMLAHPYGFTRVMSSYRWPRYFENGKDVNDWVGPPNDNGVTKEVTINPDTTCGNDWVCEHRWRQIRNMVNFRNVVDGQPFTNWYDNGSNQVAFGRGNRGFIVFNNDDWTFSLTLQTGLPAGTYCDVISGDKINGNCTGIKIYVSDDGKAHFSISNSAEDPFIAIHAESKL
From the text: Further details of these five compounds may also be seen in Table 4.

protease = conditions: natural protease inhibitor; Table II; cited from earlier work

| Molecule | peroxidase inhibition (peroxidase) | Ave (reading, absorbance at 405 nm) (α-amylase; 0 min) | inhibition of α-Amylase (α-amylase) | Ave (reading, absorbance at 405 nm) (α-amylase; 5 min) | Ave (reading, absorbance at 405 nm) (α-amylase; 15 min) | α-Amylase Inhibitor Activity (α-amylase) | also measured |
| --- | --- | --- | --- | --- | --- | --- | --- |
| Cn1c(=O)c2c(ncn2C)n(C)c1=O [CDI-33, Caffeine] | significant peroxidase inhibition capabilities |  |  |  |  |  |  |
| COc1ccc(O)c(C(C)(C)C)c1 [CDI-39, 3-tert--butyl-hydroxyanisole] | significant peroxidase inhibition capabilities |  |  |  |  |  |  |
| O=C(O)c1ccccc1 [CDI-40, Benzoic acid] |  |  |  |  |  |  | inhibition of Lysozyme (lysozyme): inhibit Lysozyme |
| Aluminum potassium sulfate dodecahydrate [CDI-42] | significant peroxidase inhibition capabilities | 0.92 | inhibit α-Amylase | 1.85 | 2.29 | α-Amylase Inhibitor Activity | reading (absorbance at 405 nm), single replicates (α-amylase; 0 min): 0.80 and 1.13 and 0.90 and 0.84; reading (absorbance at 405 nm), single replicates (α-amylase; 5 min): 1.65 and 2.15 and 1.80 and 1.81; reading (absorbance at 405 nm), single replicates (α-amylase; 15 min): 2.37 and 2.38 and 2.25 and 2.17 |
| Aluminum sulfate hydrate [CDI-34] |  | 0.40 | inhibit α-Amylase | 0.50 | 0.56 | α-Amylase Inhibitor Activity | reading (absorbance at 405 nm), single replicates (α-amylase; 0 min, sulfate hydrate): 0.40 (2×) and 0.36 and 0.45; reading (absorbance at 405 nm), single replicates (α-amylase; 5 min, sulfate hydrate): 0.49 and 0.50 (2×) and 0.52; reading (absorbance at 405 nm), single replicates (α-amylase; 15 min, sulfate hydrate): 0.53 and 0.61 and 0.54 and 0.56 |
| B1 |  |  |  |  |  |  | Inhibitory power (protease): 1.2 times times weight |
